Like-named read-outs stand apart in the source and are kept apart here.
Columns and labels:
Burkholderia glumae [1] = assay type: in vivo
Burkholderia glumae [2] = details: rice, 150 g ai/ha, 1 spray, 29 days after the 1st spray
[3] = rice at harvest, 150 g ai/ha, 2 sprays

Structure (SMILES)	Yield (% of untreated) (Burkholderia glumae [1]; [3])	Yield T/ha (Burkholderia glumae [1]; [3])	% efficacy (Abbott), Burkholderia glumae incidence on panicles (Burkholderia glumae [1]; rice, 150 g ai/ha, 2 sprays, 44 days after the 2nd spray)	% efficacy (Abbott), Burkholderia glumae incidence on panicles (Burkholderia glumae [2])	final yield increase (Burkholderia glumae [1]; rice, harvest trial, Isotianil treated plots)
CCC1(C(=O)N[C@H](C)c2ccc(Cl)cc2)C(C)C1(Cl)Cl (some centres unmarked) [CARPROPAMID]	108%	9.06 T/ha	43%	36%	
N#Cc1ccccc1NC(=O)c1snc(Cl)c1Cl [Isotianil, isotianil]					about 20%

Source: patent US20150011394A1 (priority 2012, published 2015)
